Data published in PMC12189828, “Substitution of Proline Residues by 4-Fluoro-L-Proline Affects the Mechanism of the Proline-Rich Antimicrobial Peptide Api137” (Antibiotics, 2025).
Where a SMILES comes first, the peptide text is derived from it. [ ]: non-standard residue; d: D form. The star is where a group is joined. Orn(α-tetramethylguanidino) = CN(C)C(=N[C@@H](CCCN)C(=O)*)N(C)C; Pro(trans-4-F) = O=C(O)[C@@H]1C[C@@H](F)CN1; Pro(cis-4-F) = O=C(O)[C@@H]1C[C@H](F)CN1

Assays:
[1] = test system: 50S subunit assembly / 70S ribosome in E. coli RN31; assay: Ribosome profile analysis (RPA), sucrose gradient of E. coli RN31 lysate; format: cell-based, Escherichia coli; settings: 90 min; for RPA [pre-50S formation]: E. coli RN31, 33% TSB, peptide 8 µg/mL, 5–25% sucrose gradient, n = 2 (Api137 n = 7)
Procedure: E. coli RN31 was grown in 33% TSB (37 °C, 200 rpm) from a starting OD600 of 0.05 to an OD600 of 0.2, measured on a NanoPhotometer® (NP80; Implen; Westlake Village, CA, USA), and divided into subcultures that were inoculated with a peptide ([…]) before being cultured for 90 min (37 °C, 200 rpm). The following steps were performed on ice. Cells were harvested by centrifugation (4000× g, 4 °C, 25 min), washed with TICO buffer (20 mmol/L Hepes-KOH, pH 7.6, 6 mmol/L MgAc2, 30 mmol/L KAc), centrifuged (4000× g, 25 min, 4 °C), and stored at −80 °C. The cell pellet was suspended in TICO buffer (500 µL) and mixed with silica beads (zirconium glass pellets, 100 µm diameter; Carl Roth; Karlsruhe, Germany) to lyse the cells on a FastPrep-24^TM 5G (MP Biomedicals, Solon, OH, USA) using three disruption cycles (30 s, 6.0 m/s) interrupted by 1 min of incubation on ice after each cycle. Cell debris was removed by centrifugation (5000× g, 4 °C, 5 min), the supernatant was transferred to a new reaction tube, centrifuged (20,000× g, 4 °C, 20 min), the absorbance was recorded at 260 nm on a NanoPhotometer® NP80, and the sample was stored at −80 °C.
A 5% (w/v) sucrose solution (6.5 mL) in TICO buffer containing 2-mercaptoethanol (4 mmol/L) was poured into an open-top centrifuge tube (13.2 mL, 14 × 89 mm, Beckman Coulter) and bottomed with a 25% (w/v) sucrose solution (6.5 mL) in TICO buffer containing 2-mercaptoethanol (4 mmol/L) using a cannula. The tube was sealed with parafilm and placed horizontally at 4 °C for 3 h and vertically at 4 °C for 30 min. A portion of the upper layer (550 µL) was replaced by lysate (500 µL, A260 = 30) and centrifuged using a swing-out rotor (SW 41 Ti, 52,500× g, 4 °C, 19 h) without a brake. The contents were transferred from bottom-up to obtain equal volumes in all wells of a black 96-well plate with a flat bottom (96 Well PP black Greiner Bio-One GmbH, Frickenhausen, Germany) using the Äkta Purifier 10 system, and absorbance was recorded at a wavelength of 254 nm. Fluorescence was measured in the plate using the PARADIGM at excitation (λex) and emission (λem) wavelengths of 485 nm and 535 nm for eGFP and 585 nm and 635 nm, respectively, for mCherry and normalized to the 70S ribosome peak (set to 100%).

E. coli RN31 = assay: Growth inhibition of E. coli RN31 during 90 min exponential growth phase; format: cell-based, Escherichia coli; settings: for reduction of bacterial growth vs untreated control: E. coli RN31, 33% TSB, peptide 8 µg/mL, OD600, two biological replicates (n = 2)
Procedure: The following steps were performed on ice. Cells were harvested by centrifugation (4000× g, 4 °C, 25 min), washed with TICO buffer (20 mmol/L Hepes-KOH, pH 7.6, 6 mmol/L MgAc2, 30 mmol/L KAc), centrifuged (4000× g, 25 min, 4 °C), and stored at −80 °C. The cell pellet was suspended in TICO buffer (500 µL) and mixed with silica beads (zirconium glass pellets, 100 µm diameter; Carl Roth; Karlsruhe, Germany) to lyse the cells on a FastPrep-24^TM 5G (MP Biomedicals, Solon, OH, USA) using three disruption cycles (30 s, 6.0 m/s) interrupted by 1 min of incubation on ice after each cycle. Cell debris was removed by centrifugation (5000× g, 4 °C, 5 min), the supernatant was transferred to a new reaction tube, centrifuged (20,000× g, 4 °C, 20 min), the absorbance was recorded at 260 nm on a NanoPhotometer® NP80, and the sample was stored at −80 °C. […]

[2] = test system: in vitro expression of sfGFP in the presence of RF1; assay: In vitro transcription-translation (iTT) assay of sfGFP in the presence of RF1; format: biochemical; settings: peptide 5 µmol/L, RF1, 37 °C, 2 h, fluorescence, normalized to absence of PrAMPs, n = 3
Procedure: The sfGFP expression analysis relied on the NEB PureExpress Delta RF123 Kit (New England Biolabs, Frankfurt, Germany). The DNA template encoding sfGFP with a UAG stop codon was amplified from the pY71sfGFP vector by PCR using the primers sfGFP fwd ([…]) and sfGFP rev ([…]). The release factor RF1 of the kit was diluted 50-fold (v/v) in 1× Pure System Buffer (PSB, 1 mol/L magnesium acetate, 0.5 mol/L K3PO4 (pH 7.3), 1 mol/L potassium glutamate, 1 mol/L NH4Cl, 0.5 mol/L CaCl2, 1 mol/L spermidine, 0.1 mol/L putrescine, 0.1 mol/L DTT). sfGFP expression was performed in a freshly prepared mixture of kit solution A (2 µL), kit solution B (1.5 µL), 50-fold diluted RF1 (0.5 µL), sfGFP template (0.1325 pmol, 35 ng) or water as control (0.25 µL), PSB (0.25 µL), and a PrAMP (50 or 0 µmol/L) dissolved in water (0.5 µL). The reaction mixture was transferred to a black 384-well plate (flat bottom, PS, 784900, Greiner Bio-One GmbH), covered with a lid, and incubated (37 °C, 2 h) in a microplate reader (Gemini EM, Molecular Devices, San Jose, CA, USA). Fluorescence was recorded every 10 min (λex = 485 nm, λem = 535 nm).

| Structure (SMILES) | RPA [pre-50S formation] [1] | reduction of bacterial growth vs untreated control (E. coli RN31; 90 min) [%] | Residual iTT (sfGFP expression relative to no PrAMP) [2] [%] | also measured |
| --- | --- | --- | --- | --- |
| CC[C@H](C)[C@H](NC(=O)[C@H](Cc1ccc(O)cc1)NC(=O)[C@@H](NC(=O)[C@@H]1CCCN1C(=O)[C@H](CCCNC(=N)N)NC(=O)[C@H](CC(N)=O)NC(=O)[C@H](CC(N)=O)NC(=O)[C@H](CCCN)N=C(N(C)C)N(C)C)C(C)C)C(=O)N1CCC[C@H]1C(=O)N[C@@H](CCCNC(=N)N)C(=O)N1C[C@@H](F)C[C@H]1C(=O)N[C@@H](CCCNC(=N)N)C(=O)N1CCC[C@H]1C(=O)N1CCC[C@H]1C(=O)N[C@@H](Cc1c[nH]cn1)C(=O)N1CCC[C@H]1C(=O)N[C@@H](CCCNC(=N)N)C(=O)N[C@@H](CC(C)C)C(=O)O [Api841] ({Orn(α-tetramethylguanidino)}-NNRPVYIPR[Pro(cis-4-F)]RPPHPRL-OH) | yes | 65 | 32 ± 0.9 | – |
| CC[C@H](C)[C@H](NC(=O)[C@H](Cc1ccc(O)cc1)NC(=O)[C@@H](NC(=O)[C@@H]1CCCN1C(=O)[C@H](CCCNC(=N)N)NC(=O)[C@H](CC(N)=O)NC(=O)[C@H](CC(N)=O)NC(=O)[C@H](CCCN)N=C(N(C)C)N(C)C)C(C)C)C(=O)N1CCC[C@H]1C(=O)N[C@@H](CCCNC(=N)N)C(=O)N1CCC[C@H]1C(=O)N[C@@H](CCCNC(=N)N)C(=O)N1CCC[C@H]1C(=O)N1CCC[C@H]1C(=O)N[C@@H](Cc1c[nH]cn1)C(=O)N1C[C@H](F)C[C@H]1C(=O)N[C@@H](CCCNC(=N)N)C(=O)N[C@@H](CC(C)C)C(=O)O [Api850] ({Orn(α-tetramethylguanidino)}-NNRPVYIPRPRPPH[Pro(trans-4-F)]RL-OH) | yes | 84 | – | ribosomal profile, pre-50S peak ([1]; E. coli RN31, adjusted peptide concentration 4 µg/mL): reduced the area of the pre-50S peak; OD600 of treated culture after 90 min (E. coli RN31; E. coli RN31, peptide 8 µg/mL, 90 min, initial OD600 = 0.226 ± 0.006 at 0 min): 0.333 ± 0.002; cell count relative to the initial cell count (E. coli RN31; E. coli RN31, peptide 8 µg/mL, 90 min vs 0 min (OD600)): ~ 140%; Residual iTT (sfGFP expression relative to no PrAMP) ([2]; listed as 4R-Fpr16): 28%; Residual iTT (sfGFP expression relative to no PrAMP) ([2]; listed as Pro16 4R-Fpr (trans)): 28 ± 0.7% |
| CC[C@H](C)[C@H](NC(=O)[C@H](Cc1ccc(O)cc1)NC(=O)[C@@H](NC(=O)[C@@H]1C[C@@H](F)CN1C(=O)[C@H](CCCNC(=N)N)NC(=O)[C@H](CC(N)=O)NC(=O)[C@H](CC(N)=O)NC(=O)[C@H](CCCN)N=C(N(C)C)N(C)C)C(C)C)C(=O)N1CCC[C@H]1C(=O)N[C@@H](CCCNC(=N)N)C(=O)N1CCC[C@H]1C(=O)N[C@@H](CCCNC(=N)N)C(=O)N1CCC[C@H]1C(=O)N1CCC[C@H]1C(=O)N[C@@H](Cc1c[nH]cn1)C(=O)N1CCC[C@H]1C(=O)N[C@@H](CCCNC(=N)N)C(=O)N[C@@H](CC(C)C)C(=O)O [Api840] ({Orn(α-tetramethylguanidino)}-NNR[Pro(trans-4-F)]VYIPRPRPPHPRL-OH) | yes | – | 35 ± 0.1 | – |
| CC[C@H](C)[C@H](NC(=O)[C@H](Cc1ccc(O)cc1)NC(=O)[C@@H](NC(=O)[C@@H]1CCCN1C(=O)[C@H](CCCNC(=N)N)NC(=O)[C@H](CC(N)=O)NC(=O)[C@H](CC(N)=O)NC(=O)[C@H](CCCN)N=C(N(C)C)N(C)C)C(C)C)C(=O)N1CCC[C@H]1C(=O)N[C@@H](CCCNC(=N)N)C(=O)N1CCC[C@H]1C(=O)N[C@@H](CCCNC(=N)N)C(=O)N1CCC[C@H]1C(=O)N1C[C@@H](F)C[C@H]1C(=O)N[C@@H](Cc1c[nH]cn1)C(=O)N1CCC[C@H]1C(=O)N[C@@H](CCCNC(=N)N)C(=O)N[C@@H](CC(C)C)C(=O)O [Api847] ({Orn(α-tetramethylguanidino)}-NNRPVYIPRPRP[Pro(cis-4-F)]HPRL-OH) | reduced | – | – | ribosomal profile, pre-50S peak ([1]; E. coli RN31, adjusted peptide concentration 16 µg/mL): a pre-50S peak was observed; Residual iTT (sfGFP expression relative to no PrAMP) ([2]; listed as 4S-Fpr14): 21%; Residual iTT (sfGFP expression relative to no PrAMP) ([2]; listed as Pro14 4S-Fpr (cis)): 21 ± 0.2% |
| CC[C@H](C)[C@H](NC(=O)[C@H](Cc1ccc(O)cc1)NC(=O)[C@@H](NC(=O)[C@@H]1C[C@H](F)CN1C(=O)[C@H](CCCNC(=N)N)NC(=O)[C@H](CC(N)=O)NC(=O)[C@H](CC(N)=O)NC(=O)[C@H](CCCN)N=C(N(C)C)N(C)C)C(C)C)C(=O)N1CCC[C@H]1C(=O)N[C@@H](CCCNC(=N)N)C(=O)N1CCC[C@H]1C(=O)N[C@@H](CCCNC(=N)N)C(=O)N1CCC[C@H]1C(=O)N1CCC[C@H]1C(=O)N[C@@H](Cc1c[nH]cn1)C(=O)N1CCC[C@H]1C(=O)N[C@@H](CCCNC(=N)N)C(=O)N[C@@H](CC(C)C)C(=O)O [Api839] ({Orn(α-tetramethylguanidino)}-NNR[Pro(cis-4-F)]VYIPRPRPPHPRL-OH) | yes | – | 23 ± 0.2 | – |
| CC[C@H](C)[C@H](NC(=O)[C@H](Cc1ccc(O)cc1)NC(=O)[C@@H](NC(=O)[C@@H]1CCCN1C(=O)[C@H](CCCNC(=N)N)NC(=O)[C@H](CC(N)=O)NC(=O)[C@H](CC(N)=O)NC(=O)[C@H](CCCN)N=C(N(C)C)N(C)C)C(C)C)C(=O)N1CCC[C@H]1C(=O)N[C@@H](CCCNC(=N)N)C(=O)N1CCC[C@H]1C(=O)N[C@@H](CCCNC(=N)N)C(=O)N1CCC[C@H]1C(=O)N1C[C@H](F)C[C@H]1C(=O)N[C@@H](Cc1c[nH]cn1)C(=O)N1CCC[C@H]1C(=O)N[C@@H](CCCNC(=N)N)C(=O)N[C@@H](CC(C)C)C(=O)O [Api848] ({Orn(α-tetramethylguanidino)}-NNRPVYIPRPRP[Pro(trans-4-F)]HPRL-OH) | no | – | – | Residual iTT (sfGFP expression relative to no PrAMP) ([2]; listed as 4R-Fpr14): 64%; Residual iTT (sfGFP expression relative to no PrAMP) ([2]; listed as Pro14 4R-Fpr (trans)): 64 ± 4.6% |
